The source of these data is patent US20250257071A9, “TRICYCLIC COMPOUND, METHOD FOR PREPARING SAME, AND USE THEREOF” (Sichuan Kelun-Biotech Biopharmaceutical Co., Ltd., priority 2021, published 2025).

Structures are written as SMILES.

For this assay, the target named is human TLR7 (Homo sapiens (Human), UniProt Q9NYK1). Description: Agonistic activity of compounds on HEK-Blue hTLR7 cells (QUANTI-Blue reporter, OD620). It is filed as cell-based. To be noted: for Emax (OD620): OD620 at maximum activation effect. Here is the method: • 1. HEK-Blue hTLR7 cells (Invivogen) were cultured in DMEM medium (Hyclone) containing 10% FBS heat-inactivated fetal bovine serum (Corning). On the day of detection, the cell state was observed under a microscope, the cells were collected and resuspended, and the cell concentration was adjusted after counting, 50 μL per well, the total amount of cells was 2×10^4, and the cells were inoculated in a 96-well plate. • 2. After the cells adhered to the wall overnight, 50 μL of the test compound at different concentrations was added into the well plate, so that the final concentrations were 100 μM, 33.3 μM, 11.11 μM, 3.70 μM, 1.23 μM, 0.41 μM, 0.14 μM, 0.05 μM, 0 μM, and the final concentration of DMSO was 1%. The compound was incubated with the cells in a 37° C., 5% CO2 incubator for 20 h. • 3. After the incubation, observation under microscope was performed to determine the maximum signal well, the states of the cells with the highest and lowest concentrations of the compound, and whether the compound will crystalize at high concentration. 10 μL of cell culture supermatant was taken and transferred to a new 96-well transparent plate, 90 μL of QUANTI-Blue (Invivogen) detection reagent was added to each well, and incubated at 37° C. for 3 h, and OD620 was read with a multifunctional microplate reader (BMG LABTECH). • 4. EC50 was calculated by fitting with Graphpad Prism software log(agonist) vs. response—Variable slope, and Emax was the (D620 at which the activation effect of the test compound reached the maximum.
Sequence of human TLR7 (Q9NYK1 27-1049): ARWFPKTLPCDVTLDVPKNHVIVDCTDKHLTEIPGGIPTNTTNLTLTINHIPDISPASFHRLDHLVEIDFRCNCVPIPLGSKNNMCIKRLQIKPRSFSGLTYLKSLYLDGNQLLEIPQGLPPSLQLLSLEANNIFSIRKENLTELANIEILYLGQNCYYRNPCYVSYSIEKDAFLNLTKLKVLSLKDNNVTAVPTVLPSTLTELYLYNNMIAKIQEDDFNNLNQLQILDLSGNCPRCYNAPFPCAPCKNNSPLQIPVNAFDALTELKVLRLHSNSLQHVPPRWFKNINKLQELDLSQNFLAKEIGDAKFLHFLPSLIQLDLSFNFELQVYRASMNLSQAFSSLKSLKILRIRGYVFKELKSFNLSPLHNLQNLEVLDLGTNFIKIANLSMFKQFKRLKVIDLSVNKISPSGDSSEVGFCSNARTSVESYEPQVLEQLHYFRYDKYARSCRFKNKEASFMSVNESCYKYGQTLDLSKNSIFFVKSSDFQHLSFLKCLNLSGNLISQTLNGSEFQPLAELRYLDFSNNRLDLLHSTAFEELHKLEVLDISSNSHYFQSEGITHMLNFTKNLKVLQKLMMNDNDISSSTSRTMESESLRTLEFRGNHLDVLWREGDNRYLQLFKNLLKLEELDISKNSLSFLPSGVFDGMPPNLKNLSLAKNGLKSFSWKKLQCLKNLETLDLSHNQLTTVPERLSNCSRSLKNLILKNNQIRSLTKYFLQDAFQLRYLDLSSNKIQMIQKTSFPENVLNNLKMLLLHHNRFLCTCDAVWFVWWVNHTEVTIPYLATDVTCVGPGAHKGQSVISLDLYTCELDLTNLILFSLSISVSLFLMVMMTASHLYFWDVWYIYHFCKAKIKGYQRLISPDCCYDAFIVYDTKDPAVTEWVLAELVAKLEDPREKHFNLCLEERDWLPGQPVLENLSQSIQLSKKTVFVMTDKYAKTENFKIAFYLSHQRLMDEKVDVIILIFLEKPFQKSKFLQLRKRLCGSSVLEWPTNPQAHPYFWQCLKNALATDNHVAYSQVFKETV

Regarding `COCCc1nc2c(N)nc3ccsc3c2n1CC1CCNCC1` [Compound 55, 1-(hexahydropyridin-4-ylmethyl)-2-(2-methoxyethyl) thieno[3,2-b]imidazo[4,5-d]pyridine-4-amine], the “activation effect on human TLR7 (in words)” value (“activation effect” for short) is “strong activation effect” and the “Emax (OD620)” value came out at 1.44 OD620.

`CCCCc1nc2c(N)nc3ccsc3c2n1CC1CCNCC1` [Compound 25, 2-butyl-1-(piperidin-4-ylmethyl)-1H-imidazo[4,5-d]thieno[3,2-b]pyridine-4-amine]: the “activation effect” value is reported as “strong activation effect” and the “Emax (OD620)” value is 2.08 OD620.

For the compound `CCCCc1nc2c(N)nc3cc(C4CCN(C)CC4)sc3c2n1C` [Compound 32, 2-butyl-1-methyl-7-(1-methylpiperidin-4-yl)-1H-imidazo[4,5-d]thieno[3,2-b]pyridine-4-amine], the “activation effect” value is “strong activation effect” and the “Emax (OD620)” value is given as 0.91 OD620.

Turning to `CCCCc1nc2c(N)nc3cc(C)sc3c2n1CC1CCN(C(=O)CCOCCOCCN)CC1` [Compound 17, 1-(4-((4-amino-2-butyl-7-methyl-1H-imidazo[4,5-d]thieno[3,2-b]pyridin-1-yl)methyl)piperidin-1-yl)-3-(2-(2-aminoethoxy)ethoxy)propan-1-one], the “activation effect” value is recorded as “strong activation effect” and the “Emax (OD620)” value was 2.23 OD620.

For `CCOCc1nc2c(N)nc3ccsc3c2n1CCCCN` [Compound 5, 1-(4-aminobutyl)-2-(2-ethoxymethyl)-1H-imidazo[4,5-d]thieno[3,2-b]pyridine-4-amine], the “activation effect” value is on record as “strong activation effect” and the “Emax (OD620)” value is 1.46 OD620.

In the case of `CCCCc1nc2c(N)nc3cc(C)sc3c2n1CC1CCN(C)CC1` [Compound 28, 2-butyl-7-methyl-1-((1-methylpiperidin-4-yl)methyl)-1H-imidazo[4,5-d]thieno[3,2-b]pyridine-4-amine], the “activation effect” value is given as “strong activation effect” and the “Emax (OD620)” value is 1.39 OD620.

In the case of `CCCCc1nc2c(N)nc3cc(C4CCN(C)CC4)sc3c2n1CC1CCOCC1` [Compound 34, 2-butyl-7-(1-methylpiperidin-4-yl)-1-((tetrahydro-2H-pyran-4-yl)methyl)-1H-imidazo[4,5-d]thieno[3,2-b]pyridine-4-amine], the “activation effect” value is reported as “strong activation effect” and the “Emax (OD620)” value was determined as 1.21 OD620.

With `CCCCc1nc2c(N)nc3cc(C)sc3c2n1CC1CCN(CCOCCOCCOCCOCCOCCOCCOC)CC1` [Compound 16, 1-((1-(2,5,8,11,14,17,20-heptaoxadocosan-22-yl)piperidin-4-yl)methyl)-2-butyl-7-methyl-1H-imidazo[4,5-d]thieno[3,2-b]pyridine-4-amine], the “activation effect” value is “strong activation effect” and the “Emax (OD620)” value was found to be 2.18 OD620.

In the case of `CCCCc1nc2c(N)nc3cc(C)sc3c2n1CC1CCOCC1` [Compound 26, 2-butyl-7-methyl-1-((tetrahydro-2H-pyran-4-yl)methyl)-1H-imidazo[4,5-d]thieno[3,2-b]pyridine-4-amine], the “activation effect” value is reported as “strong activation effect” and the “Emax (OD620)” value is listed as 1.78 OD620.

With `COCCc1nc2c(N)nc3ccsc3c2n1CCCCN` [Compound 4, 1-(4-aminobutyl)-2-(2-methoxyethyl)-1H-imidazo[4,5-d]thieno[3,2-b]pyridine-4-amine], the “activation effect” value is listed as “strong activation effect” and the “Emax (OD620)” value stood at 1.74 OD620.

Regarding `CCCCc1nc2c(N)nc3cc(C4CCOCC4)sc3c2n1CC1CCN(C)CC1` [Compound 40, 2-butyl-1-((1-methylpiperidin-4-yl)methyl)-7-(tetrahydro-2H-pyran-4-yl)-1H-imidazo[4,5-d]thieno[3,2-b]pyridine-4-amine], the “activation effect” value was “strong activation effect” and the “Emax (OD620)” value amounted to 1.83 OD620.

`CCCCc1nc2c(N)nc3cc(C4CCN(C)CC4)sc3c2n1CC1CCN(C)CC1` [Compound 38, 2-butyl-7-(1-methylpiperidin-4-yl)-1-((1-methylpiperidin-4-yl)methyl)-1H-imidazo[4,5-d]thieno[3,2-b]pyridine-4-amine]: the “activation effect” value is on record as “strong activation effect” and the “Emax (OD620)” value is recorded as 0.49 OD620.

`CCCCc1nc2c(N)nc3cc(C)sc3c2n1CC1CCN(CCOCCOCCN)CC1` [Compound 15, 1-((1-(2-(2-(2-aminoethoxy)ethoxy)ethyl)piperidin-4-yl)methyl)-2-butyl-7-methyl-1H-imidazo[4,5-d]thieno[3,2-b]pyridine-4-amine]: the “activation effect” value is “strong activation effect” and the “Emax (OD620)” value worked out at 2.40 OD620.

As for `CCCCc1nc2c(N)nc3cc(C4CCN(C)CC4)sc3c2n1CC1CCN(CCOC)CC1` [Compound 42, 2-butyl-1-{[1-(2-methoxyethyl)hexahydropyridin-4-yl]methyl}-7-(1-methylhexahydropyridin-4-yl)thieno[3,2-b]imidazo[4,5-d]pyridine-4-amine], the “activation effect” value is “strong activation effect” and the “Emax (OD620)” value worked out at 0.65 OD620.

For the compound `CCCCc1nc2c(N)nc3cc(C4=CCN(C)CC4)sc3c2[nH]1` [Compound 8, 2-butyl-7-(1-methyl-1,2,3,6-tetrahydropyridin-4-yl)-1H-imidazo[4,5-d]thieno[3,2-b]pyridine-4-amine], the “activation effect” value is listed as “strong activation effect” and the “Emax (OD620)” value worked out at 0.56 OD620.

On to `CCCCc1nc2c(N)nc3cc(C4CCNCC4)sc3c2n1CC1CCN(CCOC)CC1` [Compound 41, 2-butyl-7-(hexahydropyridin-4-yl)-1-{[1-(2-methoxyethyl)hexahydropyridin-4-yl]methyl}thieno[3,2-b]imidazo[4,5-d]pyridine-4-amine], for which the “activation effect” value is “strong activation effect” and the “Emax (OD620)” value is 0.84 OD620.

As for `COCCc1nc2c(N)nc3ccsc3c2n1CC1CCN(C)CC1` [Compound 56, 2-(2-methoxyethyl)-1-[(1-methylhexahydropyridin-4-yl)methyl]thieno[3,2-b]imidazo[4,5-d]pyridine-4-amine], the “activation effect” value is “strong activation effect” and the “Emax (OD620)” value was 1.41 OD620.
